Tests used:
[1] = target: Calcium/calmodulin-dependent protein kinase type II subunit beta (Homo sapiens) (UniProt Q13554); settings: Compound concentration 1000.0 nM
[2] = target: Tyrosine-protein kinase ABL1 (Homo sapiens) (UniProt P00519); settings: Compound concentration 1000.0 nM
[3] = target: Mitogen-activated protein kinase kinase kinase 3 (Homo sapiens) (UniProt Q99759); settings: Compound concentration 1000.0 nM
[4] = tested on: Mast/stem cell growth factor receptor Kit (Homo sapiens), P10721 [A829P]; settings: Compound concentration 1000.0 nM
[5] = target: Myosin light chain kinase (Homo sapiens) (UniProt Q32MK0); settings: Compound concentration 1000.0 nM
[6] = target: Serine/threonine-protein kinase PAK 6 (Homo sapiens) (UniProt Q9NQU5); settings: Compound concentration 1000.0 nM
[7] = target: Serine/threonine-protein kinase 16 (Homo sapiens) (UniProt O75716); settings: Compound concentration 1000.0 nM
[8] = target: Serine/threonine-protein kinase Nek11 (Homo sapiens) (UniProt Q8NG66); settings: Compound concentration 1000.0 nM
[9] = target: Phosphatidylinositol 4,5-bisphosphate 3-kinase catalytic subunit alpha isoform (Homo sapiens) (UniProt P42336); settings: Compound concentration 1000.0 nM
[10] = target: Serine/threonine-protein kinase 17B (Homo sapiens) (UniProt O94768); settings: Compound concentration 1000.0 nM
[11] = target: D(3) dopamine receptor (Homo sapiens) (UniProt P35462); settings: Compound concentration 10.0 uM
[12] = target: Cyclin-dependent kinase 15 (Homo sapiens) (UniProt Q96Q40); settings: Compound concentration 1000.0 nM
[13] = target: Tyrosine-protein kinase Lck (Homo sapiens) (UniProt P06239); settings: Compound concentration 1000.0 nM
[14] = target: Kappa-type opioid receptor (Homo sapiens) (UniProt P41145); settings: Compound concentration 10.0 uM
[15] = target: Testis-specific serine/threonine-protein kinase 3 (Homo sapiens) (UniProt Q96PN8); settings: Compound concentration 1000.0 nM
[16] = target: 5-hydroxytryptamine receptor 1A (Homo sapiens) (UniProt P08908); settings: Compound concentration 10.0 uM
Sequence of 5-hydroxytryptamine receptor 1A (Homo sapiens) (P08908 whole entry): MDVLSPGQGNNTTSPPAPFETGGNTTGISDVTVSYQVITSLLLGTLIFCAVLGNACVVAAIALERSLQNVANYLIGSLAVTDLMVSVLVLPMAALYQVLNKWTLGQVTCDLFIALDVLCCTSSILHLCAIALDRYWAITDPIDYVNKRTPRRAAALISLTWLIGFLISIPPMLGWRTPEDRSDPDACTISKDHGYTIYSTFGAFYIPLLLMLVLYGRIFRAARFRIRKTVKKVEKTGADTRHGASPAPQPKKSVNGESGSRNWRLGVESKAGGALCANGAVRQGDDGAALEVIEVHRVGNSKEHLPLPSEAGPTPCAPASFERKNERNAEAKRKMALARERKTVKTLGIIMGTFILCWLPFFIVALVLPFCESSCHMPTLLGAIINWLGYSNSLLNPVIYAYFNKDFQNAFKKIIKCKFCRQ

[17] = target: Activated CDC42 kinase 1 (Homo sapiens) (UniProt Q07912); settings: Compound concentration 1000.0 nM
Sequence of Activated CDC42 kinase 1 (Homo sapiens) (Q07912 whole entry, looked up): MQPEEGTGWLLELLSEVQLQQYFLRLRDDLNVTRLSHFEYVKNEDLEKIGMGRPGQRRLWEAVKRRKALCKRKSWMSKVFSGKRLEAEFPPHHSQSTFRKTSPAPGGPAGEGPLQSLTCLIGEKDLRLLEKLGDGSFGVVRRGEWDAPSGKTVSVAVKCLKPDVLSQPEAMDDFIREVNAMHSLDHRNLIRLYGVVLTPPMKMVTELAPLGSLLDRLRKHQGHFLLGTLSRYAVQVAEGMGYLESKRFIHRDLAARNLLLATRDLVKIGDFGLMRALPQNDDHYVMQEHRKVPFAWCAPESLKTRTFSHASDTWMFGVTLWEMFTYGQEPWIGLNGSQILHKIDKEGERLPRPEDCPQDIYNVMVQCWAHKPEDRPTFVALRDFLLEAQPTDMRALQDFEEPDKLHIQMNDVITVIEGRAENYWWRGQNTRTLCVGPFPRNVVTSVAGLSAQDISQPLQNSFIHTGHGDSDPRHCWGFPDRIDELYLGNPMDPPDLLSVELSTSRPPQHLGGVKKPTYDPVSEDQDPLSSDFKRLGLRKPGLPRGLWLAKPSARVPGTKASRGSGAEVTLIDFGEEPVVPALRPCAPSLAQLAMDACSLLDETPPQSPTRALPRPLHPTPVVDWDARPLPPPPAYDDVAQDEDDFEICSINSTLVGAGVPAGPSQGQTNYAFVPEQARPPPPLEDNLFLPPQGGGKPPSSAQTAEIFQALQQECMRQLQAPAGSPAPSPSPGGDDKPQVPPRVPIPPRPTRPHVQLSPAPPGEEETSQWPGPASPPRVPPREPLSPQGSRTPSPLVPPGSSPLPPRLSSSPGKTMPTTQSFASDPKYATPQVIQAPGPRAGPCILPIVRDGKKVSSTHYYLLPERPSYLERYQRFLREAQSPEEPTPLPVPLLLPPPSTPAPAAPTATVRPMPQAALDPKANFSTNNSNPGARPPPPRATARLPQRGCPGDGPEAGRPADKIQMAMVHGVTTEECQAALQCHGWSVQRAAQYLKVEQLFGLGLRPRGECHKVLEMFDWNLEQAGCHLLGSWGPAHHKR

[18] = target: G protein-coupled receptor kinase 3 (Homo sapiens) (UniProt P35626); settings: Compound concentration 1000.0 nM
[19] = target: Receptor-interacting serine/threonine-protein kinase 1 (Homo sapiens) (UniProt Q13546); settings: Compound concentration 1000.0 nM
Sequence of Receptor-interacting serine/threonine-protein kinase 1 (Homo sapiens) (Q13546 whole entry): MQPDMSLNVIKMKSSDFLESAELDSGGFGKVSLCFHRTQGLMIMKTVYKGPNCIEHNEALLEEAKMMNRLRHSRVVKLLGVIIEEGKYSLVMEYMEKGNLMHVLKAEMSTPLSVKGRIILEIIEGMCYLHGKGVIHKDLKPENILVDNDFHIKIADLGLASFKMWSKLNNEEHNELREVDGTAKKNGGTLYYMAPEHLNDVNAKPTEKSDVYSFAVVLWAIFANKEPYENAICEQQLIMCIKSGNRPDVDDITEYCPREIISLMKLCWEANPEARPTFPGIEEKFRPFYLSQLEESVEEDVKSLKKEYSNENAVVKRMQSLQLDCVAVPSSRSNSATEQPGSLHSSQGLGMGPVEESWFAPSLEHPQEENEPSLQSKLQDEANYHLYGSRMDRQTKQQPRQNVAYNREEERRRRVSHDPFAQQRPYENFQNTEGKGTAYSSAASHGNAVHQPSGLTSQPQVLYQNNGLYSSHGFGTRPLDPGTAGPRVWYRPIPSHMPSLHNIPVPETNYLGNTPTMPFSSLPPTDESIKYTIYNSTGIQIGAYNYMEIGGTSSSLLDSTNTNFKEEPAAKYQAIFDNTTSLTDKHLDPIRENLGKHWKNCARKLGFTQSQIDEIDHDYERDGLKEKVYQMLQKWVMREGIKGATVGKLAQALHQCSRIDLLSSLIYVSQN

[20] = target: Serine/threonine-protein kinase WNK3 (Homo sapiens) (UniProt Q9BYP7); settings: Compound concentration 1000.0 nM
[21] = target: Alpha-1A adrenergic receptor (Homo sapiens) (UniProt P35348); settings: Compound concentration 10.0 uM
Sequence of Alpha-1A adrenergic receptor (Homo sapiens) (P35348 whole entry): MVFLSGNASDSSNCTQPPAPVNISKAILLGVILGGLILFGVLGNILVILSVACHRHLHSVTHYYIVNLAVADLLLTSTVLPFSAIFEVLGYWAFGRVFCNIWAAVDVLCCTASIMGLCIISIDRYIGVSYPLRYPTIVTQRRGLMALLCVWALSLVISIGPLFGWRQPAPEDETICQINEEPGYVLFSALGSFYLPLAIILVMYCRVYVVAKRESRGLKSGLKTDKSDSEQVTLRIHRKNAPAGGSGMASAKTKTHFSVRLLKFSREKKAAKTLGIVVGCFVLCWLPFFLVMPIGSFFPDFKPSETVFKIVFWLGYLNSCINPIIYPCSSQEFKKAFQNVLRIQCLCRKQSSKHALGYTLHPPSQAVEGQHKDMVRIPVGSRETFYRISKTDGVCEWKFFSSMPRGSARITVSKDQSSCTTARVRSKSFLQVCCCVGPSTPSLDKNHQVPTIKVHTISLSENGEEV

[22] = target: Mitogen-activated protein kinase 13 (Homo sapiens) (UniProt O15264); settings: Compound concentration 1000.0 nM
[23] = target: Serine/threonine-protein kinase PLK2 (Homo sapiens) (UniProt Q9NYY3); settings: Compound concentration 1000.0 nM
[24] = target: Casein kinase I isoform gamma-1 (Homo sapiens) (UniProt Q9HCP0); settings: Compound concentration 1000.0 nM
[25] = target: Tyrosine-protein kinase ZAP-70 (Homo sapiens) (UniProt P43403); settings: Compound concentration 1000.0 nM
[26] = target: Mitogen-activated protein kinase kinase kinase 9 (Homo sapiens) (UniProt P80192); settings: Compound concentration 1000.0 nM
[27] = tested on: Epidermal growth factor receptor (Homo sapiens), P00533 [UNDEFINED MUTATION]; settings: Compound concentration 1000.0 nM
[28] = target: Serine/threonine-protein kinase BRSK2 (Homo sapiens) (UniProt Q8IWQ3); settings: Compound concentration 1000.0 nM
[29] = target: Serine/threonine-protein kinase D2 (Homo sapiens) (UniProt Q9BZL6); settings: Compound concentration 1000.0 nM
[30] = target: Tyrosine-protein kinase Fyn (Homo sapiens) (UniProt P06241); settings: Compound concentration 1000.0 nM
Sequence of Tyrosine-protein kinase Fyn (Homo sapiens) (P06241 2-537 limits assumed): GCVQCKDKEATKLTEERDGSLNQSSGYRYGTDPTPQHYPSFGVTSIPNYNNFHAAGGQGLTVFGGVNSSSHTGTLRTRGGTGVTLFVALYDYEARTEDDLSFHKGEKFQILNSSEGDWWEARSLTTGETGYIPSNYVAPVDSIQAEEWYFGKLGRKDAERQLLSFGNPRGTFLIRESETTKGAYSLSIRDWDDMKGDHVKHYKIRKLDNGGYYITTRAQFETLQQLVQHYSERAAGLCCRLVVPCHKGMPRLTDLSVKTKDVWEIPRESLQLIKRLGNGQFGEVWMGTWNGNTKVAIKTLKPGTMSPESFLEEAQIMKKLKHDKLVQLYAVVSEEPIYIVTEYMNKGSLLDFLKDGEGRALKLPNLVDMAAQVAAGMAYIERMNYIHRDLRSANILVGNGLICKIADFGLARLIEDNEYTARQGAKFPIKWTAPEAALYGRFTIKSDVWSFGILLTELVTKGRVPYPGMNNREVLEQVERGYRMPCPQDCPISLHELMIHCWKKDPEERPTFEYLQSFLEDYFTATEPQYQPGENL

[31] = target: Serine/threonine-protein kinase Sgk3 (Homo sapiens) (UniProt Q96BR1); settings: Compound concentration 1000.0 nM
[32] = tested on: Phosphatidylinositol 4,5-bisphosphate 3-kinase catalytic subunit alpha isoform (Homo sapiens), P42336 [E545A]; settings: Compound concentration 1000.0 nM
[33] = target: Serine/threonine-protein kinase SIK3 (Homo sapiens) (UniProt Q9Y2K2); settings: Compound concentration 1000.0 nM
[34] = target: Serine/threonine-protein kinase 10 (Homo sapiens) (UniProt O94804); settings: Compound concentration 1000.0 nM
Sequence of Serine/threonine-protein kinase 10 (Homo sapiens) (O94804 whole entry, looked up): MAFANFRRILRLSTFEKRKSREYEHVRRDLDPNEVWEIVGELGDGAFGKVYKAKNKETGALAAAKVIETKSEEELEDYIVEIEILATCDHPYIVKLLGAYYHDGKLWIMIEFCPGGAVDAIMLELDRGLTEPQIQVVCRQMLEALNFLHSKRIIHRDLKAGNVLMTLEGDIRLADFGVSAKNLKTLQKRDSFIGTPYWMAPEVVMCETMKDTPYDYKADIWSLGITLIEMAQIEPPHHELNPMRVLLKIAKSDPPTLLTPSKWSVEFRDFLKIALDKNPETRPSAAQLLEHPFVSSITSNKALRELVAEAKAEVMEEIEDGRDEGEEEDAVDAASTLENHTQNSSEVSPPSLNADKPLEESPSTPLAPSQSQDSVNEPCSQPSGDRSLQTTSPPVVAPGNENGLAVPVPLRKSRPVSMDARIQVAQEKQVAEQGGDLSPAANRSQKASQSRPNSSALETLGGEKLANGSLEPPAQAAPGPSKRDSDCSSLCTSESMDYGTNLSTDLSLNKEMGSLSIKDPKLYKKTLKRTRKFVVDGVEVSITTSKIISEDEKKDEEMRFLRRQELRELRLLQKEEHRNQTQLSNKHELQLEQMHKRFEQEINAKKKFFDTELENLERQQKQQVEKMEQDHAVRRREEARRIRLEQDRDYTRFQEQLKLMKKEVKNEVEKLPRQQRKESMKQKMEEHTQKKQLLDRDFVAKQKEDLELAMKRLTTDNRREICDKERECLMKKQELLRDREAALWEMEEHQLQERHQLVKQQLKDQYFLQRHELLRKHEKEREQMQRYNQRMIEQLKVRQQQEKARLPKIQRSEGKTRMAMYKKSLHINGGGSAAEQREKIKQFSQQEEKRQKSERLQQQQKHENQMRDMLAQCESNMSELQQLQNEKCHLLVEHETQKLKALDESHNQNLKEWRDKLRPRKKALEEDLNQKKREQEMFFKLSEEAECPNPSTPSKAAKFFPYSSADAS

[35] = target: Serine/threonine-protein kinase RIO2 (Homo sapiens) (UniProt Q9BVS4); settings: Compound concentration 1000.0 nM
[36] = target: Inhibitor of nuclear factor kappa-B kinase subunit alpha (Homo sapiens) (UniProt O15111); settings: Compound concentration 1000.0 nM
[37] = target: Cyclin-dependent kinase 8 (Homo sapiens) (UniProt P49336); settings: Compound concentration 1000.0 nM
[38] = target: TGF-beta receptor type-2 (Homo sapiens) (UniProt P37173); settings: Compound concentration 1000.0 nM
[39] = target: Cyclin-dependent kinase 3 (Homo sapiens) (UniProt Q00526); settings: Compound concentration 1000.0 nM
[40] = target: Fibroblast growth factor receptor 2 (Homo sapiens) (UniProt P21802); settings: Compound concentration 1000.0 nM
[41] = target: Dual specificity protein kinase CLK2 (Homo sapiens) (UniProt P49760); settings: Compound concentration 1000.0 nM
[42] = target: Dual specificity protein kinase TTK (Homo sapiens) (UniProt P33981); settings: Compound concentration 1000.0 nM
[43] = target: Sigma non-opioid intracellular receptor 1 (Homo sapiens) (UniProt Q99720); settings: Compound concentration 10.0 uM
Sequence of Sigma non-opioid intracellular receptor 1 (Homo sapiens) (Q99720 whole entry): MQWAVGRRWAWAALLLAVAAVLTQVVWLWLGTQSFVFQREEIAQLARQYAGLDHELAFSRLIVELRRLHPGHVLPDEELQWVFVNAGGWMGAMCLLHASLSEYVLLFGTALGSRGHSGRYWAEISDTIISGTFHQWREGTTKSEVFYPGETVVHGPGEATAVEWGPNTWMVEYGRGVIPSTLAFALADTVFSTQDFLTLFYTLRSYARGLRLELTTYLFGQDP

[44] = target: Tyrosine-protein kinase Fer (Homo sapiens) (UniProt P16591); settings: Compound concentration 1000.0 nM
[45] = target: Myosin light chain kinase family member 4 (Homo sapiens) (UniProt Q86YV6); settings: Compound concentration 1000.0 nM

Sequence of Mitogen-activated protein kinase kinase kinase 3 (Homo sapiens) (Q99759 whole entry): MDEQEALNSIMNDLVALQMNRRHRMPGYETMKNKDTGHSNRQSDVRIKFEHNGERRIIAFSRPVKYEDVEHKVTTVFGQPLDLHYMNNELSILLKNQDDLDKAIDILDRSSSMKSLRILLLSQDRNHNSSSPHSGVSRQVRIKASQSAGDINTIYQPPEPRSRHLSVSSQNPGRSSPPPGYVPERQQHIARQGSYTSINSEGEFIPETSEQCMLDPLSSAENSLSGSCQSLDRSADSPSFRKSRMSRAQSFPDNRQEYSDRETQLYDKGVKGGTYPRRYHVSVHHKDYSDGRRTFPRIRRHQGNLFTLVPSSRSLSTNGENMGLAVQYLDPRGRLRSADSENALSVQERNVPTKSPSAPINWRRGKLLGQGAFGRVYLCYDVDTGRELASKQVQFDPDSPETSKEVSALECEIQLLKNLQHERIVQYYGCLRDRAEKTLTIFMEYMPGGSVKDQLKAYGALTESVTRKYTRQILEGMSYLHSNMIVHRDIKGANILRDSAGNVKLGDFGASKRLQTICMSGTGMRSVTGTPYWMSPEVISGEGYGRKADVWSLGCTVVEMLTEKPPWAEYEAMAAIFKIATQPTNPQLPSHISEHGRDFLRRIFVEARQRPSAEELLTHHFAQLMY

Cc1c(NC(=O)c2cc(C(N)=O)nc3cc(F)ccc23)c(C(F)(F)F)nn1Cc1ccc(C(C)(C)C)cc1 [BAY-588]
inactive: residual activity [1] 98% | residual activity [2] 100% | residual activity [3] 100% | residual activity [4] 98% | residual activity [5] 100% | residual activity [6] 100% | residual activity [7] 83% | residual activity [8] 100% | residual activity [9] 100% | residual activity [10] 100% | inhibition [11] 11.9% | residual activity [12] 100% | residual activity [13] 100% | inhibition [14] 22.1% | residual activity [15] 100% | inhibition [16] 18.6% | residual activity [17] 100% | residual activity [18] 100% | residual activity [19] 100% | residual activity [20] 97% | inhibition [21] 5.25% | residual activity [23] 100% | residual activity [24] 100% | residual activity [25] 100% | residual activity [26] 100% | residual activity [27] 100% | residual activity [28] 100% | residual activity [29] 100% | residual activity [30] 100% | residual activity [31] 94% | residual activity [32] 100% | residual activity [33] 91% | residual activity [34] 88% | residual activity [35] 76% | residual activity [36] 100% | residual activity [37] 100% | residual activity [38] 100% | residual activity [39] 100% | residual activity [40] 100% | residual activity [41] 76% | residual activity [42] 79% | inhibition [43] 6.28% | residual activity [44] 100% | residual activity [45] 100%
active: residual activity [22] 49%

Cc1c(NC(=O)c2cc(C(N)=O)nc3cc(F)ccc23)c(C(F)(F)F)nn1Cc1ccc(C#N)cc1 [BAY-876]
inactive: residual activity [1] 90% | residual activity [2] 78% | residual activity [3] 66% | residual activity [4] 64% | residual activity [5] 79% | residual activity [6] 100% | residual activity [7] 100% | residual activity [8] 100% | residual activity [9] 100% | residual activity [10] 72% | inhibition [11] 1.46% | residual activity [12] 100% | residual activity [13] 98% | inhibition [14] -6.9% | residual activity [15] 82% | inhibition [16] -3.47% | residual activity [17] 71% | residual activity [18] 89% | residual activity [19] 100% | residual activity [20] 77% | inhibition [21] -5.75% | residual activity [22] 70% | residual activity [23] 78% | residual activity [24] 100% | residual activity [25] 84% | residual activity [26] 100% | residual activity [27] 59% | residual activity [28] 100% | residual activity [29] 100% | residual activity [30] 94% | residual activity [31] 83% | residual activity [32] 81% | residual activity [33] 81% | residual activity [34] 79% | residual activity [35] 76% | residual activity [36] 65% | residual activity [37] 56% | residual activity [38] 100% | residual activity [39] 95% | residual activity [40] 88% | residual activity [41] 89% | residual activity [42] 95% | inhibition [43] -2.5% | residual activity [44] 99% | residual activity [45] 90%
